Laboratory results reported in patent US20210188775A1, “CARBOXAMIDE AND SULFONAMIDE DERIVATIVES USEFUL AS TEAD MODULATORS” (Genentech, Inc., priority 2018, published 2021).

Legend:
[1] = molecular target: TEAD2 (Homo sapiens, UniProt Q15562); experiment: TEAD lipid assay (Lipid FP, Bodipy-C16 probe displacement); assay type: binding; details: fluorescence polarization, His-tagged TEAD, 60 minutes incubation
Description: (§1) A TEAD lipid assay was done according to the following method. His-tagged TEAD proteins were pre-incubated with a Bodipy-C16 FP probe (Life Technologies Cat #D3821) for 30 minutes at room temperature to pre-form TEAD-probe complex. […] Duplicate 10 point dose response curves were generated for each test compound. The potency of compounds as TEAD lipid pocket binders was determined by IC50 value generated using a non-linear 4 parameter curve fit.

[2] = molecular target: TEAD3 (Homo sapiens, UniProt Q99594); experiment: as above; assay type: binding; details: fluorescence polarization, His-tagged TEAD, 60 minutes incubation
Description: as §1

TEAD3, sequence (Q99594 whole entry, species assumed): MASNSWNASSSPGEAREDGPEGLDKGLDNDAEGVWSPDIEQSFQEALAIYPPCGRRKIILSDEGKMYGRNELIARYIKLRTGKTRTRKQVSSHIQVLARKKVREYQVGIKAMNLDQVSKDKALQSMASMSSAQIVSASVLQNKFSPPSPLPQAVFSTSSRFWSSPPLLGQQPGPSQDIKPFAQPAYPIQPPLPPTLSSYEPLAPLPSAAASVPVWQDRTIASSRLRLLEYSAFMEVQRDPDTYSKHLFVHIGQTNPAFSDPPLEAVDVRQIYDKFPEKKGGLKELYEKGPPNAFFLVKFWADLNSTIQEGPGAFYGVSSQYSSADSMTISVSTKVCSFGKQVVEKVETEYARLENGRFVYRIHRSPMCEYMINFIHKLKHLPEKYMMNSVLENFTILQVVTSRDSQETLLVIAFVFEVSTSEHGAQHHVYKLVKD
TEAD2, sequence (Q15562 whole entry, species assumed): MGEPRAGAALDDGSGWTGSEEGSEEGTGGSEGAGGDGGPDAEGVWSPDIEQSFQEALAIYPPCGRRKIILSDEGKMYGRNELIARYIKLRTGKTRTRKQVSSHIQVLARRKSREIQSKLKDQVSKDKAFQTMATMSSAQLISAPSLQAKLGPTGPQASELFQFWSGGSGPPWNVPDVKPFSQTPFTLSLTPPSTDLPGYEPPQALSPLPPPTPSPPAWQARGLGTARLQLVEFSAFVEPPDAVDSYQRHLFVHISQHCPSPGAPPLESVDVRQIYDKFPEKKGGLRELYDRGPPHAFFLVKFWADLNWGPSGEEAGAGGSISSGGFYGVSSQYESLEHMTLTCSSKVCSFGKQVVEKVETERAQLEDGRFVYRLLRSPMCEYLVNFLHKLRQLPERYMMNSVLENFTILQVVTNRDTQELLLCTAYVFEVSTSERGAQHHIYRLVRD

| SMILES | IC50 [1] | IC50 [2] |
| --- | --- | --- |
| C=CS(=O)(=O)Nc1ccc(OC)c(/C=C/c2ccc(Cl)cc2)c1 [Compound 34, N-[3-[(E)-2-(4-chlorophenyl)vinyl]-4-methoxy-phenyl]ethenesulfonamide] | 0.96 µM | 1.2 µM |
| COc1ccc(NS(=O)(=O)C2CC2)cc1/C=C/c1ccc(Cl)cc1 [Compound 49, N-[3-[(E)-2-(4-chlorophenyl)vinyl]-4-methoxy-phenyl]cyclopropanesulfonamide] | 0.75 µM | 1.9 µM |
| Cn1cc(Cc2ccc(Cl)cc2)c2cc(NS(C)(=O)=O)ccc21 [Compound 24, N-[3-[(4-chlorophenyl)methyl]-1-methyl-indol-5-yl]methanesulfonamide] | 0.36 µM | 0.78 µM |
| COc1cc(F)c(NS(=O)(=O)C2CC2)cc1/C=C/c1ccc(Cl)cc1 [Compound 10, N-[5-[(E)-2-(4-chlorophenyl)vinyl]-2-fluoro-4-methoxy-phenyl]cyclopropanesulfonamide] | 1.1 µM | 1.9 µM |
| COc1ccc(C(=O)NC(C)CCO)cc1/C=C/c1ccc(Cl)cc1 (single isomer, unassigned) [Compound 51, 3-[(E)-2-(4-chlorophenyl)vinyl]-N-(3-hydroxy-1-methyl-propyl)-4-methoxy-benzamide] | 0.96 µM | 2 µM |
| Cc1cn(Cc2ccc(Cl)cc2)c2cc(NS(C)(=O)=O)ccc12 [Compound 22, N-[1-[(4-chlorophenyl)methyl]-3-methyl-indol-6-yl]methanesulfonamide] | 0.93 µM | 1.3 µM |

Continued, values first:

| IC50 [1] | IC50 [2] | SMILES |
| --- | --- | --- |
| 0.38 µM | 0.43 µM | COc1ncc(NS(C)(=O)=O)cc1/C=C/C1CCC(F)(F)CC1 [Compound 14, N-[5-[(E)-2-(4,4-difluorocyclohexyl)vinyl]-6-methoxy-3-pyridyl]methanesulfonamide] |
| 0.69 µM | 1.2 µM | COc1ncc(NS(C)(=O)=O)cc1/C=C/[C@H]1CC[C@H](C(F)(F)F)CC1 [Compound 16, N-[6-methoxy-5-[(E)-2-[4-(trifluoromethyl)cyclohexyl]vinyl]-3-pyridyl]methanesulfonamide] |
| 0.86 µM | 0.63 µM | COc1cnc(NS(C)(=O)=O)cc1/C=C/C1(F)CCC(C(F)(F)F)CC1 (stereo not shown) [Compound 21, N-[4-[(E)-2-[1-fluoro-4-(trifluoromethyl)cyclohexyl]vinyl]-5-methoxy-2-pyridyl]methanesulfonamide] |
| 1.1 µM | 1.6 µM | COc1cnc(NS(C)(=O)=O)cc1/C=C/C1CCC(C(F)(F)F)CC1 (stereo not shown) [Compound 48, (E)-N-(5-methoxy-4-(2-(4-(trifluoromethyl)cyclohexyl)vinyl)pyridin-2-yl)methanesulfonamide] |
| 0.53 µM | 0.78 µM | CC[C@H](CO)NC(=O)c1cc(/C=C/[C@H]2CC[C@H](C(F)(F)F)CC2)c(OC)cn1 [Compound 42, (E)-N-(1-hydroxybutan-2-yl)-5-methoxy-4-(2-(4-(trifluoromethyl)cyclohexyl)vinyl) picolinamide] |
| 0.58 µM | 1.8 µM | COc1ccc(NS(C)(=O)=O)cc1/C=C/C1CCCC1 [Compound 3, N-[3-[(E)-2-cyclopentylvinyl]-4-methoxy-phenyl]methanesulfonamide] |
| 0.78 µM | 0.97 µM | COc1ccc(C(N)=O)cc1/C=C/C1CCCCC1 [Compound 31, 3-[(E)-2-cyclohexylvinyl]-4-methoxy-benzamide] |
| 1 µM | 1.1 µM | COc1ccc(C(=O)NC(C)C)cc1/C=C/C1CCCCC1 [Compound 29] |
